Measured values from patent US5900231A, “Silicone-containing derivatives of salicylic acid which have desquamating properties” (L'Oreal, priority 1996, dated 1999).

Assays:
keratinocytes = test: in vitro test of the efficacy of the desquamation on keratinocytes (release of corneocytes, flow cytometry); assay type: cell-based; conditions: for cell detachment index (difference between T60 and T0; release of corneocytes relative to control): 60 minutes after addition, relative to control without test product, equal concentrations; for desquamating activity compared with 5-n-octanoylsalicylic acid: at a concentration equal to that of 5-n-octanoylsalicylic acid
Experimental: An in vitro test of the efficacy of the desquamation was carried out on keratinocytes using 5-n-octanoylsalicylic acid (compound C1), 2-hydroxy4-(3-trimethylsilanylpropyloxy)benzoic acid (compound C2) and 2-hydroxy-5-(3-trimethylsilanylpropyloxy)benzoic acid (compound C3). C1 is a known powerful desquamating active agent, but not part of the present invention. C2 and C3 are compounds of the present invention.
The principle of the test rests on the fact that desquamation is known to induce the release of corneocytes. The desquamating power of the test product should be proportionately greater the larger the number of corneocytes released.
The test procedure was as follows: keratinocytes were obtained by separating the epidermis from skin biopsies, and these keratinocytes were dissociated by enzymatic action with trypsin and cultured at a concentration of 2×10^5 cells/ml. Growth and differentiation of the keratinocytes were obtained by culturing for 10 to 20 days in specific medium.
Next, after removing the culture medium, the test product was added and the activity of the product evaluated. To do this, two samples were taken at T0 and T60, i.e., before addition of the product and 60 minutes after this addition, and the samples thus taken were analysed on a flow cytometer to count the population of corneocytes.
The cell detachment index was determined by the difference between T60 and T0.
The same measurement was taken for a control containing no test product since the experiment inevitably produces the release of corneocytes, even in the absence of active agent. The variation of the control arbitrarily set the standard at 100%.

[1] = solubility in MIGLYOL 812 (mixture of caprylic acid and capric acid triglyceride); assay type: physicochemical
Experimental: The solubility of the silicon-containing derivatives of salicylic acid according to the invention in organic media was evaluated by comparing the solubility of 5-n-octanoylsalicylic acid with inventive compounds:
in a mixture of caprylic acid and capric acid triglyceride, marketed under the name MIGLYOL 812 by the company Huls.

| Compound | cell detachment index (difference between T60 and T0; release of corneocytes relative to control) (keratinocytes) | Solubility at room temperature [1] | desquamating activity compared with 5-n-octanoylsalicylic acid (keratinocytes) |
| --- | --- | --- | --- |
| CCCCCCCC(=O)c1ccc(O)c(C(=O)O)c1 [Compound C1, 5-n-octanoylsalicylic acid, reference compound] | 103% | < 1.5% | – |
| C[Si](C)(C)CCCOc1ccc(C(=O)O)c(O)c1 [Compound C2, 2-hydroxy-4-(3-trimethylsilanylpropyloxy)benzoic acid] | 157% | 2% | much more active than the latter |
| C[Si](C)(C)CCCOc1ccc(O)c(C(=O)O)c1 [Compound C3, 2-hydroxy-5-(3-trimethylsilanylpropyloxy)benzoic acid] | 135% | 7% | much more active than the latter |
| CC(COc1ccc(C(=O)O)c(O)c1)C[Si](C)(O[Si](C)(C)C)O[Si](C)(C)C (stereo not shown) [Compound C4, 2-hydroxy-4-[2-methyl-3-[1,3,3,3-tetramethyl-1-[(trimethyl-silyl)oxy]disiloxanyl]propyloxy]benzoic acid] | – | 6% | – |
| CC(Cc1cccc(C(=O)O)c1O)C[Si](C)(O[Si](C)(C)C)O[Si](C)(C)C (stereo not shown) [Compound C5, 2-hydroxy-3-[2-methyl-3-[1,3,3,3-tetramethyl-1-[(trimethylsilyl)oxy]disiloxanyl]propyl]benzoic acid] | – | > 20% | – |
